Results on twelve molecules are retold here after article PMC3990705, “A p38 Substrate-Specific MK2-EGFP Translocation Assay for Identification and Validation of New p38 Inhibitors in Living Cells: A Comprising Alternative for Acquisition of Cellular p38 Inhibition Data” (PLoS ONE, 2014).

pIC50: −log10 of the molar value. Read-outs that look alike come from different tables or passages of the source.

By pIC50 is commonly meant −log10 of the IC50, conventionally taken in molar units.

The target of one series is T1, p38 MAPK (Homo sapiens, UniProt Q16539).
T1 construct: endogenous in cells; host or cells: U2OS-MK2-EGFP-clone-RA#2
T1 sequence (Q16539 whole entry): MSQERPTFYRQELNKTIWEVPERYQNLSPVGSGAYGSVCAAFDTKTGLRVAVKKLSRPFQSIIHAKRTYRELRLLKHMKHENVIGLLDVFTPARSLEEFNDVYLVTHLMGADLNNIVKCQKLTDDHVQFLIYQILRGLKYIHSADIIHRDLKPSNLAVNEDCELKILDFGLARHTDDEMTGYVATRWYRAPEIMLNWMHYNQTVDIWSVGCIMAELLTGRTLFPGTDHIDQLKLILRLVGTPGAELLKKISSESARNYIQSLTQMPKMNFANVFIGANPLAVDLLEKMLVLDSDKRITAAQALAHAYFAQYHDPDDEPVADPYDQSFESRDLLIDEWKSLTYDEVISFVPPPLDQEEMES
In words: MK2-EGFP translocation assay (High Content Analysis). The note with it: for nuc/cyt ratio at 15 nM ± SD: 15 nM compound, activated U2OS MK2-EGFP cells, N = 3; for potency towards p38 inhibition in the translocation screen: 1.5 µM, 150 nM, 15 nM, normalized to Skepinone-L. The series is classed as cell-based. On the procedure:
Screening was performed in biological duplicates on different days and different cell line passages. For cellular screening ∼ 12.500 cells were seeded into 96-well clear tissue-culture micro-plates (Bio-One µClear, Greiner, Germany) and grown until 90% confluence. The Rac/p38 MAPK pathway was activated by exchanging normal growth media with hyperosmotic media. […] Plates were mixed thoroughly and incubated at 37°C and 5% CO2 in a humidified chamber atmosphere. After 80–90 minutes the treatment was stopped by disposing the media. Subsequently cell were fixed using 3% PFA/PBS in 1x PBS at pH 7.4 for 15 minutes and washed with PBS and PBST (0.05% Tween-20) following nuclear DNA staining using 150 ng/mL DAPI in 1xPBS/35 µg/mL RNAseA. Finally, plates were transferred in an automated cytomat incubator (Thermo Scientific, Germany) combined with a robotic plate handling device (PAA, UK) and subjected to automated image acquisition.
Images of EGFP and DAPI fluorescent cells were acquired using an Image Xpress micro XL microscope (Molecular Devices, Germany). […] On average 400 cells per well were imaged, allowing reliable statistical measures and quantification.
Automated image analysis was carried out using the MetaXpress software (Molecular Devices, Germany). Fluorescence intensity ratios were calculated using the average of the cellular MK2-EGFP fluorescence intensity (Cell: nuclear inner/outer mean intensity) of all images/sites per well. p38 activation was defined as positive when the nucleocytoplasmic MK2-fluorescence intensity ratio was below 0.7. For further analysis, the average of the mean of the entire plate was calculated and used for internal plate normalization. For quality assessment of the screening the Log-Z-score was determined. Obtained values were calculated on the normalized nucleocytoplasmic MK2-fluorescence intensity ratio (average of the mean) of respective data-points.
Image analysis and result calculations were performed as described.

The subject of series [1] is TNFα release in human whole blood. In words: Whole blood assay (WBA), TNFα release after LPS stimulation. It is filed as cell-based. The note with it: N = 3, read-out: WBA TNFα IC50 ± SD. Here is the method: For determination of inhibitor potency of the compounds by detection of TNFα release in human whole blood an in vitro assay using human whole blood stimulated with LPS for TNFα synthesis is a reliable test system for inhibitors of cytokine synthesis, especially for p38 MAP kinase inhibitors as TNFα synthesis is mainly mediated by p38 MAP kinase. Therefore, the synthesis and release of proinflammatory cytokines in human whole blood from a healthy donor is stimulated using a LPS solution (1 µg/mL, Sigma-Aldrich, Germany) after preincubation of inhibitor dilution (as described in [26]). After 2.5 hours of incubation in a 5% CO2 incubator, the stimulation is stopped and plasma is obtained by centrifugation of the whole blood, followed by TNFα readout from the plasma using a commercially available TNFα ELISA kit (R&D Systems, Germany). The blood sample was obtained with the written informed consent of the donor to participate in this study. The ethics committee (Ethik-Kommission der Medizinischen Fakultät und am Universitätsklinikum Tuebingen) state that an ethical statement is not mandatory when the researchers use their own blood/plasma for experiments. The german statutes and the Declaration of Helsinki are not aimed at experiments using samples provided by the principal investigator him or herself. In the opinion of the committee, the Declaration of Helsinki is designed to protect the patient’s interests and to avoid abuse of the patient’s material.

A further series addresses p38α MAPK (Homo sapiens, UniProt Q16539). The series can be described thus: Biochemical p38 MAPK activity assay (BAA), ELISA of ATF-2 phosphorylation. Here is the method:
Kinase activity assays were used for identification of p38α MAPK and JNK3 inhibitors. The experimental settings and screening procedures are previously described by Goettert et al., [28].
Briefly, the ELISA assay was performed using 96-well plates (MaxiSorp, NUNC, Germany) by measuring the activity of p38α MAPK after incubation with a candidate inhibitor. Therefore, the phosphorylation degree of activation transcription factor 2 (ATF-2) is detected by a monoclonal peroxidase conjugated antibody in a dilution of 1∶5000 (Sigma-Aldrich, Germany). This monoclonal anti-phospho-ATF-2 (Thr69/71) peroxidase-conjugated antibody reacts specifically with dually phosphorylated ATF-2, detecting neither the mono- nor the unphosphorylated kinase substrate. ATF- 2 is a natural substrate of the p38 MAPKs and JNK3, and its phosphorylation is inversely correlated with the inhibitor potency.

The next series concerns JNK3. The series can be described thus: Phospho-Ser63-c-Jun/JNK assay in U2OS MK2-EGFP cells. The series is classed as cell-based, human. The note with it: phospho-c-Jun Ser-63 endpoint, multiplexed with MK2-EGFP assay.
For the next series, the system named is JNK. Also noted: method as in PMID 11717429. The settings on record: cited from earlier work.
Another series deals with U2OS MK2-EGFP cells. In words: Cellular viability assay (AlamarBlue). The series is classed as cell-based, human. The note with it: 24 h, 15 nM–15 µM. On the procedure: The cellular viability assay was performed according to standard procedures (for details see AlamarBlue manual #DAL1100, Life Technologies, Germany). Briefly, ∼ 15.000 cells of the U2OS MK2-EGFP clone-RA#2 cell line were plated in 96 well µclear plate and grown in growth media until sub-confluency. Subsequently, cells were treated with compounds in indicated concentrations for 24 h at 37°C in a humidified chamber containing 5% CO2. After compound treatment the amount of living cells was monitored microscopically and cell-viability was determined using the AlamarBlue assay. For this purpose, resazurin was added freshly to the growth media devoid of phenol red as described. The media premixed with the resazurin substrate was pre-warmed to 37°C and 200 µL were added to the pre-treated cells in the 96-well plate. Following incubation at 37°C, 5% CO2 for 4 h the fluorescence of the media was measured in a PHERAstar photometer (BMG Labtech, USA) with the filter sets: Ex: 540nm/Em: 580nm.
A general note: Alamar Blue is a resazurin reagent that responds to reducing activity.

The mark [2] stands for this setting: inhibition of phosphorylation of ATF2, N = 3, read-out: BAA p38 IC50 ± SD.

Sequence of p38α MAPK (Q16539 whole entry): as above
Experimental for JNK3: Compound specificity towards p38 and JNK were analyzed in a secondary JNK activity assay detecting phosphorylated c-Jun (Ser63) as a substrate of JNK. This assay could be easily multiplexed with the MK2-EGFP assay as described by Henriksen et al. [31]. Briefly, stimulated U2OS-MK2-EGFP-clone-RA#2 cells were fixed in 96-well plates with 4% PFA/PBS, blocked and permeabilized with protein-free blocking media (Pierce, USA) in TBS with 0.1% Triton X-100. Samples were incubated overnight at 4°C with an antibody directed against phospho-c-Jun Ser63 (#9261, Cell Signaling Technology, USA) diluted 1∶150 in TBST followed by detection with an Alexa647-goat-α-rabbit (Life Technologies, Germany). After washing procedures cells were subjected to image acquisition and automated image-analysis as described.

Turning to `Nc1ccccc1Nc1ccc2c(c1)CCc1ccc(OC[C@H](O)CO)cc1C2=O` [LN809], the “nuc/cyt ratio at 15 nM ± SD” value at p38 MAPK is 1,064±0,1062. Also, the negative logarithm of the IC50 (pIC50) in series [1] is 7.33; on p38α MAPK (read-out: BAA p38 IC50 ± SD), 8.00.

For `CNC(=O)c1ccc2c(c1)C(=O)c1ccc(Nc3ccc(F)cc3F)cc1CC2` [LN1496], the “nuc/cyt ratio at 15 nM ± SD” value on p38 MAPK was 1,088±0,0231. The pIC50 in series [1] was 7.43; at p38α MAPK (read-out: BAA p38 IC50 ± SD), 8.49.

In the case of `Oc1c2ccccc2c2c3c(cccc13)N=N2` [SP600125], the “inhibition of p38 and JNK3 (selectivity)” value in the series with JNK3 is reported as “Selective inhibition of JNK3 activity”. Besides, the “selectivity over p38” value in the series on JNK is 300 fold.

`CC(C)Nc1cc(-c2[nH]c(SC[C@H](O)CO)nc2-c2ccc(F)cc2)ccn1` [LN954]: the “nuc/cyt ratio at 15 nM ± SD” value on p38 MAPK is on record as 1,068±0,0406. For the same molecule, the pIC50 is 6.74 in series [1] and 8.24 on p38α MAPK (read-out: BAA p38 IC50 ± SD).

Turning to `O=C1c2ccc(Nc3ccc(F)cc3F)cc2CCc2ccc(OC[C@H](O)CO)cc21` [Skepinone-L, reference compound], on p38 MAPK (0 µM –100 µM, living cells), the “cellular effectiveness in log-dilution experiments” value is recorded as “inhibits p38 from 10 nM –1 µM in living cells”. Further, at p38 MAPK, the “potency towards p38 inhibition in the translocation screen” value is listed as “outstanding potency”. Also, at p38 MAPK (10 µM compound), the “effect on nuclear export of MK2-EGFP” value is “abolishes nuclear export of MK2-EGFP”. Also, the pIC50 in series [1] was 7.23. In the series on U2OS MK2-EGFP cells, the “cytotoxic effects / cellular viability” value is “do not affect cellular viability”.

As for `CC(C)C(C)Nc1cc(-c2[nH]c(SCCCO)nc2-c2ccc(F)cc2)ccn1` (stereo not shown) [LN949], on p38 MAPK, the “nuc/cyt ratio at 15 nM ± SD” value was 1,111±0,0012. Also, the pIC50 is 6.76 in series [1] and 7.93 at p38α MAPK (read-out: BAA p38 IC50 ± SD).

Consider `CC(C)Nc1cc(-c2[nH]c(SCCO)nc2-c2ccc(F)cc2)ccn1` [LN957], for which the “nuc/cyt ratio at 15 nM ± SD” value at p38 MAPK is 1,158±0,0756. The pIC50 in series [1] is 6.89; at p38α MAPK (setting [2]), 8.52.

Take `O=C(Nc1cc(Nc2ccc3c(c2)CCc2ccc(OCCN4CCOCC4)cc2C3=O)c(F)cc1F)c1ccccc1` [LN1503]: the “nuc/cyt ratio at 15 nM ± SD” value on p38 MAPK is listed as 1,057±0,0332. Besides, the pIC50 in series [1] was 6.66; on p38α MAPK (read-out: BAA p38 IC50 ± SD), 8.89.

Consider `O=C(NCC(O)CO)c1ccc2c(c1)C(=O)c1ccc(Nc3cc(NC(=O)c4ccsc4)c(F)cc3F)cc1CC2` (stereo not shown) [LN1878], for which, at p38 MAPK, the “nuc/cyt ratio at 15 nM ± SD” value is on record as 1,211±0,1416. The pIC50 on p38α MAPK (read-out: BAA p38 IC50 ± SD) is 8.72.

As for `O=C(Nc1cc(Nc2ccc3c(c2)CCc2ccc(OCCN4CCOCC4)cc2C3=O)ccc1F)c1ccoc1` [LN1311], the “nuc/cyt ratio at 15 nM ± SD” value on p38 MAPK was 1,088±0,0781. Besides, the pIC50 in series [1] is 6.97; at p38α MAPK (read-out: BAA p38 IC50 ± SD), 8.96.

As for `O=C(Nc1cc(Nc2ccc3c(c2)CCc2ccc(OCCN4CCOCC4)cc2C3=O)c(F)cc1F)c1ccsc1` [LN1637], at p38 MAPK, the “nuc/cyt ratio at 15 nM ± SD” value is listed as 1,206±0,0326. For the same molecule, the pIC50 in series [1] was 8.22; on p38α MAPK (setting [2]), 9.30; on p38α MAPK (summary of Table 1, read-out: BAA, IC50), 8.30.

`CC(C)Sc1nc(-c2ccc(F)cc2)c(-c2ccnc(NC3CCOCC3)c2)[nH]1` [RN4296]: on p38 MAPK, the “nuc/cyt ratio at 15 nM ± SD” value is recorded as 1,288±0,2483 and the “potency towards p38 inhibition in the translocation screen” value is “most potent compound towards p38 inhibition”. The pIC50 on p38α MAPK (read-out: BAA p38 IC50 ± SD) was 8.43.
